Reference: US11787780B2 (CORCEPT THERAPEUTICS INCORPORATED, priority 2020, dated 2023)

What was measured:
[1] = target: glucocorticoid receptor (GR) recombinant ligand binding domain (LBD) (Homo sapiens (Human), UniProt P04150); assay: GR binding fluorescence polarisation (FP) assay; conditions: displacement of fluorescently tagged ligand
Description: Binding of test compounds to the glucocorticoid receptor (GR) is determined using a fluorescence polarisation (FP) assay utilising a recombinant ligand binding domain (LBD) of GR. The test compounds are assessed by their ability to displace a fluorescently tagged ligand and detection of the resulting decrease in fluorescence polarisation.

[2] = system: induction of TAT by dexamethasone in HepG2 cells; assay: Hep G2 TAT assay (inhibition of dexamethasone-induced TAT); type: cell-based, human; conditions: challenge of 100 nM dexamethasone, IC50 converted to Ki by Cheng and Prusoff equation

glucocorticoid receptor (GR) recombinant ligand binding domain (LBD), sequence (P04150 524-758): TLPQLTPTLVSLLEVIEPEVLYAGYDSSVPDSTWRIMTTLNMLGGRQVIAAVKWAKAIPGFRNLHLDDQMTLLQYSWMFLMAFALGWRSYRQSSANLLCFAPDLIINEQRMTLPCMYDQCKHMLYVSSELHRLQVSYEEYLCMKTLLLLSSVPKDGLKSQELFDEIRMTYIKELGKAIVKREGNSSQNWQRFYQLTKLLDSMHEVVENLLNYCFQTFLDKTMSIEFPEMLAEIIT

| Compound | IC50 [1] | Ki [2] |
| --- | --- | --- |
| Cc1cc2c(cnn2-c2cc(F)c(=O)n(C)c2)cc1C1(Cc2ccccc2)CCN(S(=O)(=O)c2cnn(C)n2)C1 (stereo not drawn) [Example 246, 5-(5-(3-benzyl-1-((2-methyl-2H-1,2,3-triazol-4-yl)sulfonyl)pyrrolidin-3-yl)-6-methyl-1H-indazol-1-yl)-3-fluoro-1-methylpyridin-2(1H)-one] | 6.3 nM | 49 nM |
| CCCn1cc(S(=O)(=O)N2CC[C@H](c3ccc4c(cnn4-c4ccc(F)cc4)c3)C[C@H]2C)cn1 [Example 10, 1-(4-fluorophenyl)-5-((2R,4S)-2-methyl-1-((1-propyl-1H-pyrazol-4-yl)sulfonyl)piperidin-4-yl)-1H-indazole] | 214 nM | 238 nM |
| Cc1cc2c(cnn2-c2ccc(=O)n(C(F)F)c2)cc1C1(Cc2ccccc2)CCN(S(=O)(=O)c2cnn(C)n2)C1 (stereo not drawn) [Example 247, 5-(5-(3-benzyl-1-((2-methyl-2H-1,2,3-triazol-4-yl)sulfonyl)pyrrolidin-3-yl)-6-methyl-1H-indazol-1-yl)-1-(difluoromethyl)pyridin-2(1H)-one] | 55 nM | 240 nM |
| Cc1ncc(S(=O)(=O)N2CCC(Cc3ccccc3)(c3cc4cnn(-c5ccc(=O)n(C)c5)c4cc3C)C2)cn1 (stereo not drawn) [Example 322, 5-(5-(3-benzyl-1-((2-methylpyrimidin-5-yl)sulfonyl)pyrrolidin-3-yl)-6-methyl-1H-indazol-1-yl)-1-methylpyridin-2(1H)-one] | 24 nM | 77 nM |
| CCCn1cc(S(=O)(=O)N2CCC(Cc3ccccc3)(c3cc4cnn(-c5ccc(F)cc5)c4cc3C)C2)cn1 (stereo not drawn) [Example 147] | 42 nM | 12 nM |
| Cc1cc2c(cnn2-c2ccc(F)c(CO)c2)cc1C1(Cc2ccccc2)CCN(S(=O)(=O)c2cnn(C)n2)C1 (stereo not drawn) [Example 242, (5-(5-(3-benzyl-1-((2-methyl-2H-1,2,3-triazol-4-yl)sulfonyl)pyrrolidin-3-yl)-6-methyl-1H-indazol-1-yl)-2-fluorophenyl)methanol] | 18 nM | 44 nM |
| Cc1cc2c(cnn2-c2ccc(=O)n(C)c2)cc1C1(Cc2ccccc2)CCN(S(=O)(=O)c2cn(C)c(C)n2)C1 (stereo not drawn) [Example 288] | 33 nM | 110 nM |
| Cc1cc2c(cnn2-c2ccc(F)cc2)cc1C1(Cc2cccnc2)CCN(S(C)(=O)=O)C1 (stereo not drawn) [Example 148] | 24 nM | 331 nM |
| Cc1cc2c(cnn2-c2cc(C)c(=O)n(C)c2)cc1C1(Cc2ccccc2)CCN(S(=O)(=O)c2cnn(C)n2)C1 (stereo not drawn) [Example 237, 5-(5-(3-benzyl-1-((2-methyl-2H-1,2,3-triazol-4-yl)sulfonyl)pyrrolidin-3-yl)-6-methyl-1H-indazol-1-yl)-1,3-dimethylpyridin-2(1H)-one] | 4.8 nM | 22 nM |
| CS(=O)(=O)N1CCC(Cc2ccccc2)(c2cc3cnn(-c4ccc(F)cc4)c3cc2Cl)C1 (stereo not drawn) [Example 222, 5-(3-benzyl-1-(methylsulfonyl)pyrrolidin-3-yl)-6-chloro-1-(4-fluorophenyl)-1H-indazole] | 11 nM | 39 nM |
| COc1ccc(S(=O)(=O)N2CCC(Cc3ccccc3)(c3cc4cnn(-c5ccc(=O)n(C)c5)c4cc3C)C2)cn1 (stereo not drawn) [Example 306, 5-(5-(3-benzyl-1-((6-methoxypyridin-3-yl)sulfonyl)pyrrolidin-3-yl)-6-methyl-1H-indazol-1-yl)-1-methylpyridin-2(1H)-one] | 11 nM | 56 nM |
| Cc1cc2c(cnn2-c2ccc(=O)n(C)c2)cc1C1(Cc2ccccc2)CCN(C(=O)C2CC2)C1 (stereo not drawn) [Example 332, 5-(5-(3-benzyl-1-(cyclopropanecarbonyl)pyrrolidin-3-yl)-6-methyl-1H-indazol-1-yl)-1-methylpyridin-2(1H)-one] | 20 nM | 160 nM |
| Cc1cc2c(cnn2-c2ccc(F)cc2)cc1C1(Cc2ccccc2)CCN(S(=O)(=O)C2CCOCC2)C1 (stereo not drawn) [Example 156] | 11 nM | 36 nM |
| Cc1cc2c(cnn2-c2ccc(=O)n(C)c2)cc1C1(Cc2ccccc2)CCN(S(=O)(=O)C2CC2)C1 (stereo not drawn) [Example 289, 5-(5-(3-benzyl-1-(cyclopropylsulfonyl)pyrrolidin-3-yl)-6-methyl-1H-indazol-1-yl)-1-methylpyridin-2(1H)-one] | 13 nM | 69 nM |
| Cc1cc2c(cnn2-c2ccc(=O)n(C)c2)cc1C1(Cc2ccccc2)CCN(S(=O)(=O)c2cccc(F)c2)C1 (stereo not drawn) [Example 302, 5-(5-(3-benzyl-1-((3-fluorophenyl)sulfonyl)pyrrolidin-3-yl)-6-methyl-1H-indazol-1-yl)-1-methylpyridin-2(1H)-one] | 12 nM | 27 nM |
| Cc1cc2c(cnn2-c2ccc(F)cc2)cc1N1CCN(S(=O)(=O)c2cnn(CC(F)(F)F)c2)C2(CC2)C1 [Example 67] | 18 nM | 33 nM |
| Cn1ncc(S(=O)(=O)N2CCC(Cc3ccccc3)(c3cc4cnn(-c5ccc(F)cc5)c4cc3Cl)C2)n1 (stereo not drawn) [Example 226, 5-(3-benzyl-1-((2-methyl-2H-1,2,3-triazol-4-yl)sulfonyl)pyrrolidin-3-yl)-6-chloro-1-(4-fluorophenyl)-1H-indazole] | 21 nM | 13 nM |
| Cc1cc2c(cnn2-c2ccc(F)cc2)cc1N1CCC(C)(NS(=O)(=O)c2cnn(CC3CC3)c2)CC1 [Example 133] | 7 nM | 50 nM |

| Compound | IC50 [1] | Ki [2] |
| --- | --- | --- |
| Cc1cc2c(cnn2-c2ccc(F)cc2)cc1N1CCC2CN(S(C)(=O)=O)CC21 (stereo not drawn) [Example 90] | 45 nM | 343 nM |
| Cc1cc2c(cnn2-c2ccc(=O)n(C)c2)cc1C1(Cc2ccccc2)CCN(S(=O)(=O)c2ccc(C(F)(F)F)nc2)C1 (stereo not drawn) [Example 292, 5-(5-(3-benzyl-1-((6-(trifluoromethyl)pyridin-3-yl)sulfonyl)pyrrolidin-3-yl)-6-methyl-1H-indazol-1-yl)-1-methylpyridin-2(1H)-one] | 14 nM | 110 nM |
| CCCn1cc(S(=O)(=O)N2CCC(Cc3nccs3)(c3cc4cnn(-c5ccc(F)cc5)c4cc3C)C2)cn1 (stereo not drawn) [Example 189] | 11 nM | 91 nM |
| Cc1cc2c(cnn2-c2ccc(F)cc2)cc1C1(Cc2ccc(C(F)F)nc2)CCN(S(=O)(=O)c2cnn(C)c2)C1 (stereo not drawn) [Example 171] | 67 nM | 171 nM |
| CCn1cc(S(=O)(=O)N2CCC(Cc3ccc(F)cc3)(c3cc4cnn(-c5ccc(F)cc5)c4cc3OC)C2)cn1 (stereo not drawn) [Example 217, 5-(1-((1-ethyl-1H-pyrazol-4-yl)sulfonyl)-3-(4-fluorobenzyl)pyrrolidin-3-yl)-1-(4-fluorophenyl)-6-methoxy-1H-indazole] | 17 nM | 14 nM |
| Cc1cc2c(cnn2-c2ccc(F)cc2)cc1C1(Cc2ccccc2)CCN(S(=O)(=O)c2ccn(C)n2)C1 (stereo not drawn) [Example 215, 5-(3-benzyl-1-((1-methyl-1H-pyrazol-3-yl)sulfonyl)pyrrolidin-3-yl)-1-(4-fluorophenyl)-6-methyl-1H-indazole] | 10 nM | 10 nM |
| Cc1cc2c(cnn2-c2ccc(=O)n(C)c2)cc1C1(Cc2ccccc2)CCN(S(=O)(=O)c2ccnn2C)C1 (stereo not drawn) [Example 293, 5-(5-(3-benzyl-1-((1-methyl-1H-pyrazol-5-yl)sulfonyl)pyrrolidin-3-yl)-6-methyl-1H-indazol-1-yl)-1-methylpyridin-2(1H)-one] | 6.1 nM | 100 nM |
| CCCn1cc(S(=O)(=O)NC2(C)CCN(c3cc4cnn(-c5ccc(F)cc5)c4cc3C)CC2)cn1 [Example 129] | 5 nM | 66 nM |
| COc1cc2c(cnn2-c2ccc(F)cc2)cc1C1(Cc2ccccc2)CCN(S(=O)(=O)c2cnn(C)c2)C1 (stereo not drawn) [Example 161] | 11 nM | 39 nM |
| COc1cc2c(cnn2-c2ccc(F)cc2)cc1C1(Cc2ccc(F)cc2)CCN(S(=O)(=O)c2cnn(C)n2)C1 (stereo not drawn) [Example 219, 5-(3-(4-fluorobenzyl)-1-((2-methyl-2H-1,2,3-triazol-4-yl)sulfonyl)pyrrolidin-3-yl)-1-(4-fluorophenyl)-6-methoxy-1H-indazole] | 26 nM | 13 nM |
| Cc1cc2c(cnn2-c2ccc(F)cc2)cc1N1CCN(S(=O)(=O)c2cnn(C)c2)C2(CC2)C1 [Example 59] | 19 nM | 246 nM |
| CC(C)c1cc2c(cnn2-c2ccc(F)cc2)cc1C1(Cc2ccccc2)CCN(S(=O)(=O)c2cnn(C)c2)C1 (stereo not drawn) [Example 164] | 189 nM | 89 nM |
| CC(C)c1cc2c(cnn2-c2ccc(F)cc2)cc1C1(Cc2ccccc2)CCN(S(C)(=O)=O)C1 (stereo not drawn) [Example 163] | 106 nM | 60 nM |
| C[C@@H]1CN(c2ccc3c(cnn3-c3ccc(F)cc3)c2)CCN1S(=O)(=O)c1ccnn1C [Example 65] | 334 nM | 1480 nM |
| Cc1cc2c(cnn2-c2ccc(=O)n(C)c2)cc1C1(Cc2ccccc2)CCN(S(=O)(=O)c2cccnc2)C1 (stereo not drawn) [Example 286, 5-(5-(3-benzyl-1-(pyridin-3-ylsulfonyl)pyrrolidin-3-yl)-6-methyl-1H-indazol-1-yl)-1-methylpyridin-2(1H)-one] | 11 nM | 52 nM |
| COc1cc2c(cnn2-c2ccc(F)cc2)cc1C1(Cc2ccccc2)CCN(C(=O)c2cncs2)C1 (stereo not drawn) [Example 231, (3-benzyl-3-(1-(4-fluorophenyl)-6-methoxy-1H-indazol-5-yl)pyrrolidin-1-yl)(thiazol-5-yl)methanone] | 13 nM | 48 nM |
| CC(=O)N1CCC(Cc2ccccc2)(c2cc3cnn(-c4ccc(F)cc4)c3cc2C)C1 (stereo not drawn) [Example 190, 1-(3-benzyl-3-(1-(4-fluorophenyl)-6-methyl-1H-indazol-5-yl)pyrrolidin-1-yl)ethan-1-one] | 5 nM | 55 nM |
| CCC1(c2cc3cnn(-c4ccc(F)cc4)c3cc2C)CCN(S(C)(=O)=O)C1 (stereo not drawn) [Example 167] | 8 nM | 256 nM |
